# Legend:
# [1] = system: MDA-MB-435; experiment: NCI cytotoxicity screen, Melanoma panel; assay type: cell-based; settings: MDA-MB-435
# Description: (§1) Cytotoxicity was performed at National Cancer Institute (NCI), Bethesda, USA as per their protocols.
# [2] = system: UACC-257; experiment: NCI cytotoxicity screen, Melanoma panel; assay type: cell-based
# Description: as §1
# [3] = system: MALME-3M; experiment: NCI cytotoxicity screen, Melanoma panel; assay type: cell-based
# Description: as §1
# [4] = system: SK-MEL-5; experiment: NCI cytotoxicity screen, Melanoma panel; assay type: cell-based
# Description: as §1
# [5] = system: SK-MEL-28; experiment: NCI cytotoxicity screen, Melanoma panel; assay type: cell-based
# Description: as §1
# [6] = system: SK-MEL-2; experiment: NCI cytotoxicity screen, Melanoma panel; assay type: cell-based
# Description: as §1
# [7] = NCI cytotoxicity screen, Non-Small Cell Lung Cancer panel; assay type: cell-based; settings: Homo sapiens; EXVX; five dose 0.01–100 µM; read-out: LC50 (the source's name)
# Description: as §1
# [8] = system: TK-10; experiment: NCI cytotoxicity screen, Renal Cancer panel; assay type: cell-based, human; settings: five dose 0.01–100 µM
# Description: as §1
# [9] = system: 786-0; experiment: NCI cytotoxicity screen, Renal Cancer panel; assay type: cell-based, human; settings: five dose 0.01–100 µM
# Description: as §1
# [10] = system: KM12; experiment: NCI cytotoxicity screen, Colon Cancer panel; assay type: cell-based, human; settings: five dose 0.01–100 µM
# Description: as §1
# [11] = system: SW-620; experiment: NCI cytotoxicity screen, Colon Cancer panel; assay type: cell-based, human; settings: five dose 0.01–100 µM
# Description: as §1
# [12] = system: CT-DNA; experiment: CT-DNA binding, fluorescence quenching (Stern-Volmer, Scatchard); set-up: species or system calf
# Description: (§2) The stock solution of compound 31 (10^−3 M) was prepared in DMSO and diluted to required concentration using appropriate buffer solution. Calf thymus (CT)-DNA was dissolved in 10 mM Tris buffer of pH 7.4 having 1 mM EDTA at room temperature. The purity of DNA solution was determined by using the ratio of absorbance at 260 nm and 280 nm wavelength. Extinction coefficient 6600 M^−1 cm^−1 of single nucleotide at 260 nm was used to determine the concentration of the DNA solution. The stock solution of BSA (10^−3 M) was prepared in distilled water and stored at 4 °C temperature.
# In the case of BSA experiments, fluorescence emission spectra were performed for BSA (10 µM) with increasing concentration of compound 31 (0–10 µM) in phosphate buffer (pH 7.4) at room temperature upon excitation at 280 nm. The dissociation constant of compound 31 was estimated by titrating the complex of compound 31 (10 µM) and BSA (10 µM) with increasing concentration of ibuprofen (0–15 µM), upon excitation at 280 nm. All emission spectra were recorded in the range of 200 to 800 nm.
# (§3) Binding parameters KSV and Kq were calculated using the Stern-Volmer equation (Eq. 2):2 F0/F=1+Ksv[Analyte]=1+Kqτo[Analyte]
# (§4) Fo denotes the emission intensity of derivative 31/BSA free from analyte (CT-DNA/ derivative 31), whereas, F denotes the emission intensity of derivative 31/BSA bound with analyte (CT-DNA/derivative 31). The values of KSV and Kq were determined from the plot of Fo/F vs. [analyte].
# (§5) The binding parameters Kbin and n were determined using Scatchard equation (Eq. 3):3 logF0−F/F=logKbin+nlog[analyte]
# (§6) Fo and F denote similar factors as those of the above Stern-Volmer equation. The values of Kbin and n were determined from the plot of log (Fo − F)/F vs. log [analyte].
# [13] = target: T1, bovine serum albumin (BSA) (Bos taurus, UniProt P02769); experiment: BSA binding, fluorescence quenching (Stern-Volmer, Scatchard)
# T1 sequence (P02769 25-607): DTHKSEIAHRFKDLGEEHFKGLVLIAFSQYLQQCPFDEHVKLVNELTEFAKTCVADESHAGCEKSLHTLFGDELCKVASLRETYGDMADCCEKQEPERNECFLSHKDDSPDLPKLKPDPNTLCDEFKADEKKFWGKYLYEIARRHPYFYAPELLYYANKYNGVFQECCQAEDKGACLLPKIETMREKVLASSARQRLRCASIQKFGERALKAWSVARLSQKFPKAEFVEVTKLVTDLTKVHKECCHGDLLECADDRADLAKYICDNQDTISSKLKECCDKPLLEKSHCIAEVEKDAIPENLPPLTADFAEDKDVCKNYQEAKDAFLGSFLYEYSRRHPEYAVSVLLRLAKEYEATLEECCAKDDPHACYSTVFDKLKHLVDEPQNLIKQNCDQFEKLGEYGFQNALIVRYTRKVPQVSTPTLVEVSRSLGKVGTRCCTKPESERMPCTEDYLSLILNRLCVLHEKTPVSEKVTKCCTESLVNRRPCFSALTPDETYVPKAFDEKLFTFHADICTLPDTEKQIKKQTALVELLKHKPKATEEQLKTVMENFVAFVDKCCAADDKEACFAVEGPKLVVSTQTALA
# Description: as §2
# […] The dissociation constant of compound 31 was estimated by titrating the complex of compound 31 (10 µM) and BSA (10 µM) with increasing concentration of ibuprofen (0–15 µM), upon excitation at 280 nm. All emission spectra were recorded in the range of 200 to 800 nm.
# as §3, §4, §5, §6
# [14] = system: LOX IMVI; experiment: NCI cytotoxicity screen, Melanoma panel; assay type: cell-based, human
# Description: as §1
# [15] = system: M14; experiment: NCI cytotoxicity screen, Melanoma panel; assay type: cell-based, human
# Description: as §1
# [16] = system: UACC-62; experiment: NCI cytotoxicity screen, Melanoma panel; assay type: cell-based, human; settings: five dose 0.01–100 µM
# Description: as §1
# [17] = target: T1, bovine serum albumin (BSA); experiment: Förster resonance energy transfer (FRET) with BSA; assay type: binding; settings: BSA donor, compound acceptor
# Excerpt: The energy transfer efficiency from BSA and compound 31 can be calculated using Eq. 5 [27]:5 E=1−F/Fo=Ro6/Ro6+r^6
# F and Fo are the BSA fluorescence intensities in the presence and absence of the derivative 31, r is the distance among the acceptor and the donor, whereas Ro is the critical distance when the efficiency of energy transfer is 50%. Ro can be calculated using Eq. 6 [28]:6 Ro6=8.8×10^−25k^2η^−4ΦJ where k^2 is the orientation factor of the dipole, ɳ is the refracted index of the medium, Ф the fluorescence quantum yield of the donor, and J is the overlap integral of the fluorescence emission spectrum of the donor with the absorption spectrum of the acceptor. The value of J can be calculated using Eq. 7 [29]:7 J=ΣF(λ)ε(λ)λ^4Δλ/ΣF(λ)Δλ where F(λ) is fluorescence intensity of the donor i.e. BSA without acceptor and ε(λ) is molar absorption coefficient of the acceptor i.e. compound 31 at the wavelength λ, respectively. The values of k^2 = 2/3, ɳ = 1.336 and Ф = 0.15 were used for the calculations.
# [18] = system: SF-539; experiment: NCI cytotoxicity screen, CNS Cancer panel; assay type: cell-based
# Description: as §1
# [19] = system: SF-295; experiment: NCI cytotoxicity screen, CNS Cancer panel; assay type: cell-based
# Description: as §1
# [20] = system: U251; experiment: NCI cytotoxicity screen, CNS Cancer panel; assay type: cell-based
# Description: as §1
# [21] = system: SNB-19; experiment: NCI cytotoxicity screen, CNS Cancer panel; assay type: cell-based
# Description: as §1
# [22] = system: SF-268; experiment: NCI cytotoxicity screen, CNS Cancer panel; assay type: cell-based
# Description: as §1
# [23] = system: SNB-75; experiment: NCI cytotoxicity screen, CNS Cancer panel; assay type: cell-based
# Description: as §1
# [24] = Homo sapiens, five dose 0.01–100 µM, read-out: LC50 (the source's name)
# [25] = Homo sapiens, five dose 0.01–100 µM
compound,measurement,setting,value
"c1cn2cc(-c3ccc4ncn(C5CCCCC5)c4c3)nc(-c3ccc4c(c3)ncn4C3CCCCC3)c2n1 [Compound 31, 8-(1-cyclohexyl-1H-benzo[d]imidazol-5-yl)-6-(1-cyclohexyl-1H-benzo[d]imidazol-6-yl)imidazo[1,2-a]pyrazine]",GI50,[1]; Homo sapiens,1.77 µM
same,CC50,[1]; [24],7.11 µM
same,TGI,[1]; five dose 0.01–100 µM,3.55 µM
same,GI50,[2]; Homo sapiens,2.1 µM
same,LC50,[2]; [25],6.24 µM
same,TGI,[2]; five dose 0.01–100 µM,3.62 µM
same,GI50,"[3]; Homo sapiens, Malme-3M",2.11 µM
same,CC50,"[3]; Homo sapiens, MALME-3M, five dose 0.01–100 µM, read-out: LC50 (the source's name)",6.68 µM
same,TGI,"[3]; MALME-3M, five dose 0.01–100 µM",3.75 µM
same,GI50,[4]; Homo sapiens,1.49 µM
same,CC50,[4]; [24],5.39 µM
same,TGI,[4]; five dose 0.01–100 µM,2.83 µM
same,GI50,[5]; Homo sapiens,1.81 µM
same,CC50,[5]; [24],6.43 µM
same,TGI,[5]; five dose 0.01–100 µM,3.41 µM
same,GI50,[6]; Homo sapiens,1.74 µM
same,CC50,[6]; [24],6.45 µM
same,TGI,[6]; five dose 0.01–100 µM,3.35 µM
same,CC50,[7],> 1 µM
same,GI50,[8]; Homo sapiens,2.02 µM
same,TGI,[8],3.65 µM
same,GI50,[9]; Homo sapiens,1.73 µM
same,TGI,[9],3.47 µM
same,GI50,[10]; Homo sapiens,2.01 µM
same,TGI,[10],3.83 µM
same,GI50,[11]; Homo sapiens,2.08 µM
same,TGI,[11],3.97 µM
same,Ksv (Stern-Volmer constant),"[12]; CT-DNA, pH 7.4, 298 K",9300 M⁻¹
same,Kq (apparent bimolecular quenching constant),"[12]; CT-DNA, τo = 10^−8 s",9.3e+11 M⁻¹ s⁻¹
same,Kbin,"[12]; CT-DNA, Scatchard",95800 M⁻¹
same,binding constant (Kbin),"[12]; CT-DNA, Scatchard",95800 M⁻¹
same,n (number of binding sites),"[12]; CT-DNA, Scatchard",1.21
same,KSV,"[12]; CT-DNA, Stern-Volmer constant",9300 M⁻¹
same,Kq,"[12]; CT-DNA, apparent bimolecular quenching constant",9.3e+11 M⁻¹ s⁻¹
same,quenching of fluorescence intensity,"[12]; compound 5 µM, CT-DNA 0–50 µM",75%
same,Stern-Volmer quenching constant (Ksv),[13]; BSA,104000 M⁻¹
same,apparent bimolecular quenching constant (Kq),[13]; BSA,1.04e+13 M⁻¹ s⁻¹
same,quenching of BSA emission band at 350 nm,"[13]; BSA 10 µM, compound 0–16 µM",up to 70%
same,Kbin,"[13]; BSA, Scatchard",47000 M⁻¹
same,n (number of binding sites),"[13]; BSA, Scatchard",0.92
same,Kd,"[13]; BSA, Scatchard, read-out: binding constant (Kbin) (converted)",21.3 µM
same,KSV,"[13]; BSA, Stern-Volmer constant",104000 M⁻¹
same,Kq,"[13]; BSA, apparent bimolecular quenching constant",1.04e+13 M⁻¹ s⁻¹
same,GI50,[14]; Homo sapiens,1.68 µM
same,TGI,[14]; five dose 0.01–100 µM,3.22 µM
same,GI50,[15]; Homo sapiens,1.77 µM
same,TGI,[15]; five dose 0.01–100 µM,3.65 µM
same,GI50,[16]; Homo sapiens,1.7 µM
same,TGI,[16],3.36 µM
same,critical distance (Ro),[17],2.29 nm
same,distance between BSA and the compound (r),[17],2.08 nm
same,energy transfer efficiency (E),[17],64%
same,overlap integral value (J),[17],5.35 × 10^−15 cm^3 L mol^−1
same,GI50,[18]; Homo sapiens,1.63 µM
same,LC50 (concentration killing 50% of cells),[18]; [25],6.1 µM
same,TGI,[18]; five dose 0.01–100 µM,3.15 µM
same,GI50,[19]; Homo sapiens,1.71 µM
same,CC50,[19]; [24],5.8 µM
same,TGI,[19]; five dose 0.01–100 µM,3.15 µM
same,GI50,"[20]; Homo sapiens, U-251",1.91 µM
same,CC50,"[20]; Homo sapiens, U-251, U251, five dose 0.01–100 µM, read-out: LC50 (the source's name)",6.98 µM
same,TGI,"[20]; U251, five dose 0.01–100 µM",3.65 µM
same,GI50,"[21]; Homo sapiens, SNB-19",2.11 µM
same,inhibition at 10 µM,"[21]; Homo sapiens, SNB-19, read-out: Percent growth inhibition",93.4%
same,TGI,"[21]; SNB-19, five dose 0.01–100 µM",4.95 µM
same,GI50,[22]; Homo sapiens,1.59 µM
same,CC50,[22]; [24],6.23 µM
same,TGI,[22]; five dose 0.01–100 µM,3.15 µM
same,GI50,[23]; Homo sapiens,1.39 µM
same,LC50,[23]; [25],6.77 µM
same,TGI,[23]; five dose 0.01–100 µM,3.07 µM
